Measured values taken from patent publication US20080255217A1, “PREVENTIVE OR THERAPEUTIC AGENT FOR CARDIAC DYSFUNCTION OR MYOCARDIAL INJURY CAUSED BY ISCHEMIA OR ISCHEMIA REPERFUSION” (SANWA KAGAKU KENKYUSHO CO., LTD., priority 2005, published 2008).

Experiments:
aldose reductase = aldose reductase (Homo sapiens, UniProt P15121); assay: Aldose reductase inhibitory activity; type: biochemical; conditions: background statement
[1] = test system: hearts of wild-type mice (BDF-1); assay: Isolated heart (Langendorff) ischemia-reperfusion, wild-type mice; design: species or system mouse; conditions: for deterioration of the cardiac performance and destruction of cardiac muscle due to an ischemia reperfusion injury in a heart: discussion summary of wild-type and hAR-TG results; for increase of left ventricular end-diastolic pressure (LVEDP) after ischemia reperfusion: 1 μM in perfusion solution, FIG. 2; for release of CK from cardiomyocytes: 60-min reperfusion, FIG. 4
Description: (§1) In an experimental test, hearts of 7 to 9 week-old wild-type mice (BDF-1) and hAR-TG were used. From these mice, hearts were isolated under anesthesia of pentobarbital 50 mg/kg i.p., and were placed in ice-cold saline. The isolated hearts were perfused for 20 minutes at a perfusion pressure of 70 mmHg with the Langendorff apparatus (Model IH-1 Type 844, HUGO SACHS ELEKTRONIK, Germany), and was stabilized. Thereafter, after perfusion for 30 minutes under heart function measurement, perfusion solution was completely stopped for 30 minutes, and reperfusion was performed for further 60 minutes, thereby, ischemia-ischemia reperfusion loading was performed. As perfusion solution, Krebs-Henseleit (KH) buffer containing 5.55 mM glucose and 2 mM Na-pyruvate was used. Cardiac performance was assessed by a left ventricular end-diastolic pressure (LVEDP) and peak first derivative of left ventricular systolic pressure (+dP/dt max). These were measured with a pressure transducer connected with a balloon inserted into a left ventricle in condition of hearts paced at 3 volt, 420 beats/min with an electrode placed on the top of a right ventricle, and data thereof were calculated with a four cannel recording device (OMUNIACE RT-3300, NEC, Japan). An AR inhibitor was added to the perfusion solution for 10 minutes from 15 minutes before global ischemia initiation as shown in FIG. 1. Each inhibitor (1 μM SNK-860: SNK, 1-10 μM zopolrestat: ZOP, 10 μM epalrestat: EPA) was dissolved in DMSO, and a DMSO final concentration in a perfusion solution was adjusted to 0.05%. DMSO of the same concentration was also added to a perfusion solution of a control experiment. Cardiomyocytes injury was determined using as an index the release of total creatinine kinase (CK) for 60-min reperfusion, and a myocardial ATP content after 60 minutes reperfusion was determined by the bioluminescence method (Sigma-Aldrich, St. Louis, Mo.) using luciferase, respectively.

[2] = test system: hearts of human aldose reductase (AR) transgenic mice (hAR-TG); assay: Isolated heart (Langendorff) ischemia-reperfusion, hAR-TG mice; design: species or system mouse; conditions: for increase in LVEDP: FIG. 5; for reduction in +dP/dt max: FIG. 6; for release of CK into a perfusion solution: FIG. 7; for decrease in a myocardial ATP content: after 60 minutes reperfusion, FIG. 8
Excerpt: In the present invention, not only wild-type mice, but also human aldose reductase (AR) transgenic mice (hAR-TG) which was produced so as to overexpress human-type AR genetically in a mouse, were used for predicting effectiveness in humans which is significant for the development of such a therapeutic agent. As a control for comparison with SNK-860, epalrestat and zopolrestat were used.
as §1
For hAR-TG mice, littermates (LM: hAR non-expression litter mouse) were used as control mice without drug treatment.

[3] = test system: diabetic cardiomyopathy patients; conditions: Johnson B F: Diabetes Care 27,448, 2004; cited from earlier work
[4] = drug development ceased; cited from earlier work
[5] = wild-type mice, isolated heart, 1 μM

Compound | aldose reductase inhibitory activity (aldose reductase) | deterioration of the cardiac performance and destruction of cardiac muscle due to an ischemia reperfusion injury in a heart ([1]; lower concentration, non-diabetic state) | increase of left ventricular end-diastolic pressure (LVEDP) after ischemia reperfusion ([1]; wild-type mice, isolated heart) | reduction in peak first derivative of left ventricular systolic pressure (+dP/dt max) immediately after reperfusion ([1]; wild-type mice, isolated heart, 1 μM, FIG. 3) | release of CK from cardiomyocytes [1, 5] | increase in LVEDP ([2]; 1 μM) | reduction in +dP/dt max ([2]; 1 μM) | release of CK into a perfusion solution ([2]; 1 μM) | decrease in a myocardial ATP content ([2]; 1 μM) | cardiac performance of diabetic cardiomyopathy patients [3] | deterioration of the cardiac performance and destruction of cardiac muscle due to an ischemia reperfusion injury in a heart ([1]; high concentration) | increase in LVEDP ([2]; 10 μM) | reduction in +dP/dt max ([2]; 10 μM) | release of CK into a perfusion solution ([2]; 10 μM) | decrease in a myocardial ATP content ([2]; 10 μM) | manifestation of side effects [4]
NC(=O)[C@@H]1C[C@]2(NC(=O)NC2=O)c2cc(F)ccc2O1 [SNK-860, (2S,4S)-6-fluoro-2′,5′-dioxospiro[chroman-4,4′-imidazolidine]-2-carboxamide] | strong aldose reductase inhibitory activity | completely inhibited | significantly improved | the most remarkable effect | significant reduction | significant improvement | significant improvement | equivalent improvement effect to that of the 10 μM epalrestat-addition group | equivalent improvement effect to that of the 10 μM epalrestat-addition group | – | – | – | – | – | – | –
O=C(O)Cc1nn(Cc2nc3cc(C(F)(F)F)ccc3s2)c(=O)c2ccccc12 [zopolrestat] | – | – | significantly improved | – | no effect | – | – | – | – | improves the cardiac performance | only the partial effect | significant improvement | significant improvement | significant improvement was not observed | significant improvement was not observed | hepatic disorders
